Data reported in ChEMBL document CHEMBL5360644, “Structure-Activity Relationship Studies of 2,4,5-Trisubstituted Pyrimidine Derivatives Leading to the Identification of a Novel and Potent Sirtuin 5 Inhibitor against Sepsis-Associated Acute Kidney Injury” (J Med Chem, 2023).
pIC50: −log10 of the molar value. *1 amine or outer side, *2 acyl side, *3 side chain or, on linkers, in order; H or OH if unused. Where a SMILES comes first, the peptide text is derived from it. The star is where a group is joined. AMC = Cc1cc(=O)oc2cc(N*)ccc12; Suc = O=C(CCC(=O)[*:2])[*:1]

These compounds were tested against T1, NAD-dependent protein deacetylase sirtuin-2 (Homo sapiens, UniProt Q8IXJ6) (assay: Inhibition of recombinant SIRT2 (unknown origin) using Ac-Glu-Thr-Asp-Lys (Dec)-AMC as substrate).
T1 sequence (Q8IXJ6 whole entry): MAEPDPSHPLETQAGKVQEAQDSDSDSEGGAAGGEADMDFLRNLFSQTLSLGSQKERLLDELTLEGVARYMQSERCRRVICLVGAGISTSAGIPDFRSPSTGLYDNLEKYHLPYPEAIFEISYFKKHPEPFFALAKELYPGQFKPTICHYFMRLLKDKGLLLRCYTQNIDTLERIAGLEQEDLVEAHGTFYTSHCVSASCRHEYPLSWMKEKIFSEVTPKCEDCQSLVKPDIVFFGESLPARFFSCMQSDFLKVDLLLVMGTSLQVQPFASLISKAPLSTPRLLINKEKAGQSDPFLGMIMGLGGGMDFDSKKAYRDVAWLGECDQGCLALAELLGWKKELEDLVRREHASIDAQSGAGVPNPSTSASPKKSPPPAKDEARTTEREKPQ

SMILES | pIC50
O=C(O)CCNC(=S)NCCCNc1nc(Nc2ccccc2Cl)ncc1C(=O)N1CC[C@H](c2ccccc2)C1 | 4.40

The compounds below were run against T2, NAD-dependent protein deacylase sirtuin-5, mitochondrial (Homo sapiens, UniProt Q9NXA8) (assay: Binding affinity to human SIRT5 (34 to 269 residues) assessed as thermal stabilization by measuring change in melting temperature at 60 uM incubated for 10 mins in presence of NAD+ by SYPRO orange dye based thermal shift assay).
Target sequence in this assay (Q9NXA8 37-310 limits assumed): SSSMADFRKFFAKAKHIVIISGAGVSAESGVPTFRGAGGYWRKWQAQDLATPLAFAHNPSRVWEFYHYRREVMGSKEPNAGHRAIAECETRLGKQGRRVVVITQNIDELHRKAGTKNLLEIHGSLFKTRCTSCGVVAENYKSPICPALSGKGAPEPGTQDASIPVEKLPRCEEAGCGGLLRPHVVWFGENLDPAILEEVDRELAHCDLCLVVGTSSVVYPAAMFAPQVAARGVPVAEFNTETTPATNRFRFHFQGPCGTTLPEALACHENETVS

SMILES | ΔTm [°C]
CC(=O)N[C@@H](CC(C)C)C(=O)NCC(=O)N[C@@H](CO)C(=O)N[C@@H](CCCCNC(=O)CCC(=O)O)C(=O)Nc1ccc2c(C)cc(=O)oc2c1 (Ac-LGSK(Suc)-{AMC}) | 0.97

Each compound was assayed against T2, NAD-dependent protein deacylase sirtuin-5, mitochondrial (assay: Inhibition of human SIRT5 (34 to 269 residues) using Ac-Leu-Gly-Ser-Lys (Su)-AMC as fluorogenic substrate in presence of NAD+).
Target sequence in this assay (Q9NXA8 whole entry, the tested form may be a part): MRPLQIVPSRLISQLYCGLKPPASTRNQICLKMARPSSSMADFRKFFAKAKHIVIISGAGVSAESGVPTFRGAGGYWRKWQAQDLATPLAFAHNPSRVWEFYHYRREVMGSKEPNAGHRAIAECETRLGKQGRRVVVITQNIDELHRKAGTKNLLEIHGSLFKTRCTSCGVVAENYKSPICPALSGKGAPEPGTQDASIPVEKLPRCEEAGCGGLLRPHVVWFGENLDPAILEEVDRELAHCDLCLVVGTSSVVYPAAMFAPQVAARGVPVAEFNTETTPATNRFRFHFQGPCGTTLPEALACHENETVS

SMILES | pIC50
CC[C@H](NC(=O)c1cnc(Nc2ccccc2Cl)nc1NCCCNC(=S)NCCC(=O)O)c1ccccc1 | 5.43
CCOC(=O)c1cnc(Nc2ccccc2Cl)nc1NCCCNC(=S)NCCC(=O)O | 5.72
CCOC(=O)c1cnc(Nc2cccc(C)c2Br)nc1NCCCNC(=S)NCCC(=O)O | 5.64
CCOC(=O)c1cnc(Nc2ccccc2OC)nc1NCCCNC(=S)NCCC(=O)O | 4.97
O=C(O)CCNC(=S)NCCCNc1nc(Nc2ccccc2Cl)ncc1C(=O)Nc1ccc2ccccc2c1 | 5.29
CCOC(=O)c1cnc(Nc2ccc(F)cc2)nc1NCCCNC(=S)NCCC(=O)O | 5.12
CC(C)(C)OC(=O)[C@H](NC(=O)c1cnc(Nc2ccccc2Cl)nc1NCCCNC(=S)NCCC(=O)O)c1ccccc1 | 5.74
CCOC(=O)c1cnc(Nc2cccc(F)c2)nc1NCCCNC(=S)NCCC(=O)O | 5.02
O=C(O)CCNC(=S)NCCCNc1nc(Nc2ccccc2Cl)ncc1C(=O)NC1(c2ccccc2)CC1 | 5.55
C[C@@H](NC(=O)c1cnc(Nc2ccccc2Cl)nc1NCCCNC(=S)NCCC(=O)O)c1ccccc1 | 5.97
CC[C@@H](NC(=O)c1cnc(Nc2ccccc2Cl)nc1NCCCNC(=S)NCCC(=O)O)c1ccccc1 | 6.24
CCOC(=O)c1cnc(Nc2ccccc2Br)nc1NCCCNC(=S)NCCC(=O)O | 5.39
CCOC(=O)c1cnc(Nc2ccccc2F)nc1NCCCNC(=S)NCCC(=O)O | 5.23
CCOC(=O)c1cnc(Nc2ccc(Br)cc2)nc1NCCCNC(=S)NCCC(=O)O | 5.12
O=C(O)CCNC(=S)NCCCNc1nc(Nc2ccccc2Cl)ncc1C(=O)N1CCC(c2ccccc2)C1 (stereo not given) | 6.28
CC(C)c1ccccc1NC(=O)c1cnc(Nc2ccccc2Cl)nc1NCCCNC(=S)NCCC(=O)O | 5.55
CCOC(=O)c1cnc(Nc2ccccc2)nc1NCCCNC(=S)NCCC(=O)O | 5.12
O=C(O)CCNC(=S)NCCCNc1nc(Nc2ccccc2Cl)ncc1C(=O)NCCc1cc2ccccc2[nH]1 | 5.84
COc1cc(NC(=O)c2cnc(Nc3ccccc3Cl)nc2NCCCNC(=S)NCCC(=O)O)cc(OC)c1 | 5.81
C[C@H](NC(=O)c1cnc(Nc2ccccc2Cl)nc1NCCCNC(=S)NCCC(=O)O)c1ccccc1 | 5.76
CCOC(=O)c1cnc(Nc2cccc(F)c2Cl)nc1NCCCNC(=S)NCCC(=O)O | 5.62

SMILES | pIC50
Cc1ccccc1NC(=O)c1cnc(Nc2ccccc2Cl)nc1NCCCNC(=S)NCCC(=O)O | 5.26
O=C(O)CCNC(=S)NCCCNc1nc(Nc2ccccc2Cl)ncc1C(=O)Nc1cccc2ccccc12 | 5.53
CCOC(=O)c1cnc(Nc2cccc(Cl)c2)nc1NCCCNC(=S)NCCC(=O)O | 4.87
CC(C)CNC(=O)c1cnc(Nc2ccccc2Cl)nc1NCCCNC(=S)NCCC(=O)O | 5.17
O=C(O)CCNC(=S)NCCCNc1nc(Nc2ccccc2Cl)ncc1C(=O)N1CCCC1c1ccccc1 (stereo not given) | 4.56
O=C(O)CCNC(=S)NCCCNc1nc(Nc2ccccc2Cl)ncc1C(=O)Nc1ccccc1-c1ccccc1 | 5.32
O=C(O)CCNC(=S)NCCCNc1nc(Nc2ccccc2Cl)ncc1C(=O)N[C@@H](Cc1ccccc1)C(=O)O | 5.77
O=C(O)CCNC(=S)NCCCNc1nc(Nc2ccccc2Cl)ncc1C(=O)O | 5.79
CCOC(=O)c1cnc(Nc2cccc(Br)c2C)nc1NCCCNC(=S)NCCC(=O)O | 5.46
CCOC(=O)c1cnc(Nc2cc(OC)cc(OC)c2)nc1NCCCNC(=S)NCCC(=O)O | 5.16
O=C(O)CCNC(=S)NCCCNc1nc(Nc2ccccc2Cl)ncc1C(=O)N[C@H]1c2ccccc2C[C@H]1O | 5.38
CCOC(=O)c1cnc(Nc2ccccc2C)nc1NCCCNC(=S)NCCC(=O)O | 5.45
CC(CCc1ccccc1)NC(=O)c1cnc(Nc2ccccc2Cl)nc1NCCCNC(=S)NCCC(=O)O (stereo not given) | 5.80
CCCNC(=O)c1cnc(Nc2ccccc2Cl)nc1NCCCNC(=S)NCCC(=O)O | 5.11
COC(=O)c1cnc(Nc2ccccc2Cl)nc1NCCCNC(=S)NCCC(=O)O | 5.48
CCOC(=O)c1cnc(Nc2cccc(Br)c2)nc1NCCCNC(=S)NCCC(=O)O | 4.66
O=C(O)CCNC(=S)NCCCNc1nc(Nc2ccccc2Cl)ncc1C(=O)N1CCOCC1 | 5.07
CCOC(=O)c1cnc(Nc2ccc(C)cc2)nc1NCCCNC(=S)NCCC(=O)O | 4.93
CCOC(=O)c1cnc(Nc2c(C)cccc2C)nc1NCCCNC(=S)NCCC(=O)O | 5.50
CC(C)(C)OC(=O)[C@@H](NC(=O)c1cnc(Nc2ccccc2Cl)nc1NCCCNC(=S)NCCC(=O)O)c1ccccc1 | 5.81
CCOC(=O)c1cnc(Nc2cccc(OC)c2)nc1NCCCNC(=S)NCCC(=O)O | 4.77

SMILES | pIC50
O=C(O)CCNC(=S)NCCCNc1nc(Nc2ccccc2Cl)ncc1C(=O)N1CCCC(c2ccccc2)C1 (stereo not given) | 5.44
O=C(O)CCNC(=S)NCCCNc1nc(Nc2ccccc2Cl)ncc1C(=O)NC1CC1 | 5.02
O=C(O)CCNC(=S)NCCCNc1nc(Nc2ccccc2Cl)ncc1C(=O)Nc1ccccc1 | 5.50
O=C(O)CCNC(=S)NCCCNc1nc(Nc2ccccc2Cl)ncc1C(=O)N1CCCC1 | 4.67
CCOC(=O)c1cnc(Nc2ccc(Cl)cc2)nc1NCCCNC(=S)NCCC(=O)O | 5.03
CCOC(=O)c1cnc(Nc2ccccc2-c2ccccc2)nc1NCCCNC(=S)NCCC(=O)O | 5.40
CCOC(=O)c1cnc(Nc2cccc(C)c2)nc1NCCCNC(=S)NCCC(=O)O | 4.77
O=C(O)CCNC(=S)NCCCNc1nc(Nc2ccccc2Cl)ncc1C(=O)N[C@H]1CCCC[C@@H]1O | 5.05
O=C(O)CCNC(=S)NCCCNc1nc(Nc2ccccc2Cl)ncc1C(=O)N1CCC(c2ccccc2)CC1 | 5.45
CCOC(=O)c1cnc(Nc2cccc(F)c2C)nc1NCCCNC(=S)NCCC(=O)O | 5.62
O=C(O)CCNC(=S)NCCCNc1nc(Nc2ccccc2Cl)ncc1C(=O)NCc1ccccc1 | 5.95
CCOC(=O)c1cnc(Nc2c(F)cccc2F)nc1NCCCNC(=S)NCCC(=O)O | 5.55
CCOC(=O)c1cnc(Nc2ccc(Br)cc2C)nc1NCCCNC(=S)NCCC(=O)O | 5.57
COc1ccccc1NC(=O)c1cnc(Nc2ccccc2Cl)nc1NCCCNC(=S)NCCC(=O)O | 5.27
O=C(O)CCNC(=S)NCCCNc1nc(Nc2ccccc2Cl)ncc1C(=O)N[C@@H]1C[C@H]1c1ccc(F)c(F)c1 | 5.91
O=C(O)CCNC(=S)NCCCNc1nc(Nc2ccccc2Cl)ncc1C(=O)N1CC[C@H](c2ccccc2)C1 | 6.51
CCOC(=O)c1cnc(Nc2ccc(OC)cc2)nc1NCCCNC(=S)NCCC(=O)O | 4.98
O=C(O)CCNC(=S)NCCCNc1nc(Nc2ccccc2Cl)ncc1C(=O)N[C@@H]1C[C@H]1c1ccccc1 | 5.60
CC(C)OC(=O)c1cnc(Nc2ccccc2Cl)nc1NCCCNC(=S)NCCC(=O)O | 5.56
O=C(O)CCNC(=S)NCCCNc1nc(Nc2ccccc2Cl)ncc1C(=O)NC1CCC1 | 5.10

What follows are compounds tested against T2, NAD-dependent protein deacylase sirtuin-5, mitochondrial (assay: Binding affinity to human SIRT5 (34 to 269 residues) assessed as thermal stabilization by measuring melting temperature at 60 uM incubated for 10 mins in presence of NAD+ by SYPRO orange dye based thermal shift assay (reference value: 66.32 degreeC)).
Target sequence in this assay (Q9NXA8 37-310 limits assumed): as the sequence (Q9NXA8 37-310 limits assumed) above

SMILES | Tm [°C]
CC(=O)N[C@@H](CC(C)C)C(=O)NCC(=O)N[C@@H](CO)C(=O)N[C@@H](CCCCNC(=O)CCC(=O)O)C(=O)Nc1ccc2c(C)cc(=O)oc2c1 (Ac-LGSK(Suc)-{AMC}) | 67.3
